The numbers were not newly measured in patent US20090117053A1, “LOCAL DELIVERY OF 5-AMINOLEVULINIC-ACID BASED COMPOUNDS TO TISSUES AND ORGANS FOR DIAGNOSTIC AND THERAPEUTIC PURPOSES” (Boston Scientific Scimed, Inc., priority 2007, published 2009), which cites them from elsewhere.

Test system in one series: not given
Particulars: compared with ALA hydrochloride and various other ALA ester hydrochlorides.
With `Cl.NCC(=O)CCC(=O)OCCC(F)(F)C(F)(F)C(F)(F)C(F)(F)F` [ALA nonafluorohexylester hydrochloride], the phototoxicity entry is “improved phototoxicity”.

Turning to ALA dibenzyldiester dihydrochloride, the phototoxicity result is on record as “improved phototoxicity”.

For the compound `CCCCCCSC(=O)CCC(=O)CN.Cl` [ALA thiohexylester hydrochloride, ALA thiohexyl ester hydrochloride], the phototoxicity result is recorded as “improved phototoxicity”.

A further series relates to protoporphyrin IX (PPIX). Particulars: compared with ALA hydrochloride and various other ALA ester hydrochlorides.
In the case of `Cl.NCC(=O)CCC(=O)OCCC(F)(F)C(F)(F)C(F)(F)C(F)(F)F` [ALA nonafluorohexylester hydrochloride], the PPIX levels result was “appreciably increased PPIX levels”.

As to ALA dibenzyldiester dihydrochloride, the PPIX levels entry is given as “appreciably increased PPIX levels”.

With `CCCCCCSC(=O)CCC(=O)CN.Cl` [ALA thiohexylester hydrochloride, ALA thiohexyl ester hydrochloride], the PPIX levels entry was “appreciably increased PPIX levels”.

Test system in the next series: not given
Particulars: comparison between ALA-based compounds.
`COC(=O)CCC(=O)CN.Cl` [ALA methyl ester hydrochloride]: the “hydrophilicity (relative ranking)” value is given as “more hydrophilic than ALA ethyl ester hydrochloride”.

As for `Cl.NCC(=O)CCC(=O)O` [ALA hydrochloride, 5-aminolevulinic acid hydrochloride], the “hydrophilicity (relative ranking)” value is recorded as “more hydrophilic than ALA methyl ester hydrochloride”.

For `CCOC(=O)CCC(=O)CN.Cl` [ALA ethyl ester hydrochloride], the “hydrophilicity (relative ranking)” value is reported as “more hydrophilic than ALA n-propyl ester hydrochloride”.
